Reference: article PMC3288125 (Cancer Chemotherapy and Pharmacology, 2011)
Several values for one entry are separate records, joined by “and”; a condition that tells them apart may be missing. Equal values may be shown once. Marks after values point to notes of the source that are not given here.

Experiments:
[1] = Serum pharmacokinetics and bioavailability of oral 3-AP
[2] = test system: advanced stage solid cancers; experiment: Tumor response to oral 3-AP; format: in vivo, human
[3] = Phase I dose escalation of oral 3-AP: adverse events; format: in vivo
[4] = in vivo, po
advanced stage cancers = conditions: cited from earlier work
[5] = Serum pharmacokinetics of intravenous 3-AP; format: in vivo, human
[6] = Oral Route, oral dose 50 mg, individual patients
[7] = Oral Route, oral dose 100 mg, individual patients
[8] = Oral Route, oral dose 150 mg, individual patients
[9] = Oral Route, oral dose 200 mg, individual patients
[10] = of 20 enrolled patients, all dose levels
[11] = 200 mg, represented grade 4 toxicity
[12] = adverse events attributed to treatment, 20 patients
[13] = Intravenous Route, 100 mg 2-hour infusion, individual patients

## NC(=S)NN=Cc1ncccc1N [3-AP, 3-aminopyridine-2-carboxaldehyde thiosemicarbazone]
[1]; [6]
  AUC: 5.2 µM·h and 1.9 µM·h and 3.5 µM·h and 1.6 µM·h and 1.4 µM·h and 4.1 µM·h
  Cmax: 1500 nM and 900 nM and 500 nM and 1100 nM
  MRT: 2.6 h and 3.0 h and 3.4 h
  Tmax: 3.0 h and 0.8 h and 1.0 h and 1.3 h
[1]; [7]
  AUC: 6.5 µM·h and 2.3 µM·h
  Cmax: 2500 nM
  MRT: 3.0 h
[1]; [8]
  AUC: 8.0 µM·h and 21.7 µM·h and 4.3 µM·h and 8.5 µM·h
  Cmax: 5900 nM and 1600 nM and 10100 nM
  MRT: 3.5 h and 1.7 h and 5.4 h and 3.3 h
  Tmax: 0.8 h and 6.0 h
[1]; [9]
  AUC: 56.0 µM·h and 19.5 µM·h
  Cmax: 800 nM and 4600 nM
  MRT: 3.9 h
  Tmax: 3.0 h
[1]; human, serum, po
  bioavailability: 67 ± 29%
[1]; human, serum, po, 50 mg, MRT, oral dose 50 mg, individual patients
  MRT: 4.2 h
[1]; human, serum, po, 100 mg, MRT, oral dose 100 mg, individual patients
  MRT: 2.8 h
[1]; human, serum, po, 150 mg, AUC, Avg., average for patients receiving an oral dose of 150 mg
  AUC: 10.6 µM·h
[1]; human, serum, po, 150 mg, Cmax, Avg., average for patients receiving an oral dose of 150 mg
  Cmax: 5000 nM
[1]; human, serum, po, 200 mg, MRT, oral dose 200 mg, individual patients
  MRT: 2.5 h
[1]; human, serum, po, MRT, Avg., mean across dose levels
  MRT: 3.2 h
[1]; human, serum, po, Tmax, Avg., mean across dose levels
  Tmax: 1.9 h
[2]; in vivo
  median duration of stable disease response: 2 months
[2]; [10]
  Stable disease as the best response: 25%
  Stable disease as the best response, patients: 5
[2]; of 20 patients
  Therapy discontinued for disease progression: 50%
  progressive disease confirmed while on study, patients: 10
[2]; of 20 patients, after a median of 2 cycles
  Therapy discontinued for disease progression, patients: 10
[2]; one patient with pancreatic adenocarcinoma
  longest progression-free interval: 15 months
[2]; treated population with advanced solid tumors
  clinical benefit rate: 25%
[3]; [11]
  (AST/SGOT), Grade 3–4: 1 (50) ^* No. of Patients (%)
  Neutropenia, Grade 3–4: 1 (50) ^* No. of Patients (%)
  Thrombocytopenia, Grade 3–4: 1 (50) ^* No. of Patients (%)
[3]; All Gr 3–4, all dose levels
  (AST/SGOT), Grade 3–4: 1 (5) No. of Patients (%)
  Anorexia, Grade 3–4: 1 (5) No. of Patients (%)
  Fatigue, Grade 3–4: 1 (5) No. of Patients (%)
  Hemoglobin (anemia), Grade 3–4: 2 (10) No. of Patients (%)
  Hypertension, Grade 3–4: 1 (5) No. of Patients (%)
  Hypoxia, Grade 3–4: 2 (10) No. of Patients (%)
  Infection, Grade 3–4: 1 (5) No. of Patients (%)
  Neutropenia, Grade 3–4: 4 (20) No. of Patients (%)
  Thrombocytopenia, Grade 3–4: 1 (5) No. of Patients (%)
[3]; [12]
  (AST/SGOT), all grades: 10%
  (AST/SGOT), all grades, No. of Patients: 2
  Alkaline phosphatase, all grades: 10%
  Alkaline phosphatase, all grades, No. of Patients: 2
  Anorexia, all grades: 20%
  Anorexia, all grades, No. of Patients: 4
  Diarrhea, all grades: 5%
  Diarrhea, all grades, No. of Patients: 1
  Fatigue, all grades: 25%
  Fatigue, all grades, No. of Patients: 5
  Headache, all grades: 20%
  Headache, all grades, No. of Patients: 4
  Hemoglobin (anemia), all grades, No. of Patients: 7
  Hemorrhage, all grades, No. of Patients: 1
  Hyperglycemia, all grades: 15%
  Hyperglycemia, all grades, No. of Patients: 3
  Hypertension, all grades: 5/5%
  Hypertension, all grades, No. of Patients: 1/1
  Neutropenia, all grades, No. of Patients: 11
  Thrombocytopenia, all grades, No. of Patients: 6
  Thrombosis, all grades, No. of Patients: 0
  Vomiting, all grades: 15%
  Vomiting, all grades, No. of Patients: 3
[3]; among the 20 patients enrolled
  hematological and infectious adverse events observed, number: 27
[3]; human, in vivo
  Hypokalemia, all grades: 5%
  Hypokalemia, all grades, No. of Patients: 1
  Hypotension, all grades: 5/5%
  Hypotension, all grades, No. of Patients: 1/1
  Hypoxia, all grades: 10%
  Hypoxia, all grades, No. of Patients: 2
  Infection, all grades: 15%
  Infection, all grades, No. of Patients: 3
  Nausea, all grades: 25%
  Nausea, all grades, No. of Patients: 5
[3]; of 20 patients
  Therapy discontinued for adverse events: 40%
[3]; of 20 patients, after a median of 1 cycle
  Therapy discontinued for adverse events, patients: 8
[3]; oral 50 mg every 12 Hrs.
  DLT Description: grade 3 hypertension
[3]; oral 150 mg every 12 Hrs.
  DLT Description: grade 4 febrile neutropenia
[3]; oral 200 mg every 12 Hrs.
  DLT Description: grade 3 hypoxia
[3]; oral vs intravenous route
  MTD by the oral route higher than by the intravenous route: 33%
[3]; per dose, every 12 hours for 5 doses on days 1–3, 8–10, 15–17 of each 28-day cycle
  maximum tolerated dose (MTD) of oral 3-AP: 150 mg
[4]; human
  CL/F, Avg.: 0.017 L/h
[4]
  exposure of orally administered 3-AP versus dose: increased in a dose dependent manner
Advanced stage cancers; phase 1, radiation, cisplatin and three-times weekly intravenous 3-AP 25 mg/m^2, advanced stage cervical cancer, 10 of 10 women
  durable 18-month complete pelvic tumor response rate: 100%
Advanced stage cancers; phase I, intravenous 3-AP in combination with gemcitabine, after 4 months of treatment
  patients with at least stable disease as a best response: 42%
Advanced stage cancers; phase II, intravenous 3-AP and gemcitabine, relapsed nonsmall cell lung cancer
  stable disease rate: 20%
[5]; [13]
  AUC: 8.8 µM·h and 4.8 µM·h and 12.1 µM·h and 14.1 µM·h and 7.0 µM·h and 16.1 µM·h and 25.6 µM·h and 10.2 µM·h and 14.5 µM·h and 8.3 µM·h and 11.3 µM·h and 7.2 µM·h and 5.7 µM·h and 10.0 µM·h
  MRT (mean residence time): 2.4 h and 2.6 h and 3.0 h and 3.5 h and 2.3 h and 2.7 h and 3.1 h
[5]; Intravenous Route, 100 mg 2-hour infusion, serum, individual patients
  Cmax: 2800 nM and 5400 nM and 4700 nM and 6700 nM and 1900 nM and 3700 nM and 2700 nM and 3200 nM and 2900 nM and 2100 nM and 2500 nM
[5]; human, serum, iv, 100 mg
  Tmax: 2 h
[5]; human, serum, iv, 100 mg, AUC, Avg., 100 mg 2-hour infusion, mean
  AUC: 9.5 µM·h
[5]; human, serum, iv, 100 mg, Cmax, Avg., 100 mg 2-hour infusion, mean
  Cmax: 3500 ± 1400 nM
[5]; human, serum, iv, 100 mg, MRT (mean residence time), 100 mg 2-hour infusion, individual patients
  MRT: 2.5 h
[5]; human, serum, iv, 100 mg, MRT, Avg., 100 mg 2-hour infusion, mean
  MRT: 2.8 h
[5]; read-out: Cmax, Avg., Intravenous Route, 100 mg 2-hour infusion, mean
  Cmax: 2800 nM
